Assay [1] addresses T1, Dihydrofolate reductase (Rattus norvegicus, UniProt Q920D2).
T1 sequence (Q920D2 whole entry): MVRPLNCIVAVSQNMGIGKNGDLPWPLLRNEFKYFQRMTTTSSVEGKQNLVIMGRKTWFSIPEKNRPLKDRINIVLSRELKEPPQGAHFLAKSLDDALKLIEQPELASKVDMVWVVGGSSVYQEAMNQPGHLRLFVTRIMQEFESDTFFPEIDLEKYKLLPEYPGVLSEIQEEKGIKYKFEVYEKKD
Description: Inhibition of rat liver DHFR at 37 degC by spectrophotometry

The target of assay [2] is T2, Dihydrofolate reductase (Pneumocystis carinii, UniProt P16184).
T2 sequence (P16184 whole entry): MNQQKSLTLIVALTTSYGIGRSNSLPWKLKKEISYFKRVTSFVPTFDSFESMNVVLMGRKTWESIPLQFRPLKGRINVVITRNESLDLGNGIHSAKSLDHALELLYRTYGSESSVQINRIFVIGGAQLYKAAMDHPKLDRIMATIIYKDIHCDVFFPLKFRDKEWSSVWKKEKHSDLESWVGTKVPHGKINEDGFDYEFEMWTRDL
Description: Inhibition of Pneumocystis carinii DHFR at 37 degC by spectrophotometry

The target of assay [3] is T3, Dihydrofolate reductase (Mycobacterium avium, UniProt O30463).
T3 sequence (O30463 whole entry): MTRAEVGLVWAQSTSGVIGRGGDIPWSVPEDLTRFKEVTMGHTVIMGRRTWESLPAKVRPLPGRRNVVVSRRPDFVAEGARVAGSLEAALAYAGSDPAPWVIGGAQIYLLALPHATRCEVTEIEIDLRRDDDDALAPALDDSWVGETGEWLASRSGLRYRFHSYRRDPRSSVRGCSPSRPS
Description: Inhibition of Mycobacterium avium DHFR at 37 degC by spectrophotometry

In assay [4] the target is T4, Bifunctional dihydrofolate reductase-thymidylate synthase (Toxoplasma gondii, UniProt Q07422).
T4 sequence (Q07422 whole entry): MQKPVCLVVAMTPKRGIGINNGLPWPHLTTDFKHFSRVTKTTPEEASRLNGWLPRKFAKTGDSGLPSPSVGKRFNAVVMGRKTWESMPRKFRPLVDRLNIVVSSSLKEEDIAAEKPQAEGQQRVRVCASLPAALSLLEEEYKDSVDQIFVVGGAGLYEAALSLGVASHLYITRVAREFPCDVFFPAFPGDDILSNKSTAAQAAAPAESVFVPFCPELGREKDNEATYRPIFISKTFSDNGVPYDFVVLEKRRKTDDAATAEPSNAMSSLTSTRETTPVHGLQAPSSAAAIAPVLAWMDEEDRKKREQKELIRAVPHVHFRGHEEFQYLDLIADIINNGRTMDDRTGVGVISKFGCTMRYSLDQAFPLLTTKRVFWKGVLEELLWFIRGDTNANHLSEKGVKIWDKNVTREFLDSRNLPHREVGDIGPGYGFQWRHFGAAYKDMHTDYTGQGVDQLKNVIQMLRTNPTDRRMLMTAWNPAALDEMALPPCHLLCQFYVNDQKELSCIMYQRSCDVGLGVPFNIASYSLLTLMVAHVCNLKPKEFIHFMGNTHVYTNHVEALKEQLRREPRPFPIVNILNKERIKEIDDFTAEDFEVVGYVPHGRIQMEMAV
Description: Inhibition of Toxoplasma gondii DHFR at 37 degC by spectrophotometry

Assay [5] addresses T5, Dihydrofolate reductase (Pneumocystis carinii) (UniProt P16184).
T5 sequence (whole entry): T2 sequence (P16184 whole entry)
Description: Inhibition of Pneumocystis carinii DHFR at 20 uM under 37 degC by spectrophotometry.

Assay [6] deals with T6, Dihydrofolate reductase (Mycobacterium avium) (UniProt O30463).
T6 sequence (whole entry): T3 sequence (O30463 whole entry)
To be noted: 196 uM.

The target of assay [7] is T7, Dihydrofolate reductase (Rattus norvegicus) (UniProt Q920D2).
T7 sequence (whole entry): T1 sequence (Q920D2 whole entry)
Description: Inhibition of rat liver DHFR at 196 uM under 37 degC by spectrophotometry.

Assay [8] addresses T8, Dihydrofolate reductase (Escherichia coli, UniProt P0ABQ4).
T8 sequence (P0ABQ4 whole entry): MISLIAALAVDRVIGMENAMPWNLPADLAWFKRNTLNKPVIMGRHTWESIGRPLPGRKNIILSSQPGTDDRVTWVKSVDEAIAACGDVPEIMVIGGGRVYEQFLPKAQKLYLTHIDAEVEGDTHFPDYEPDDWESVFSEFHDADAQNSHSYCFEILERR
Description: Inhibition of Escherichia coli DHFR at 30 degC under pH 7.4 by spectrophotometry

Assay [9] has as its target T4, Bifunctional dihydrofolate reductase-thymidylate synthase. The source holds these as a separate data set.
Assay [10] shares this target. The source holds these as a separate data set.
Description: Inhibition of Toxoplasma gondii DHFR at 30 degC under pH 7.4 by spectrophotometry
The target of assay [11] is T9, Dihydrofolate reductase (Homo sapiens, UniProt P00374).
T9 sequence (P00374 whole entry): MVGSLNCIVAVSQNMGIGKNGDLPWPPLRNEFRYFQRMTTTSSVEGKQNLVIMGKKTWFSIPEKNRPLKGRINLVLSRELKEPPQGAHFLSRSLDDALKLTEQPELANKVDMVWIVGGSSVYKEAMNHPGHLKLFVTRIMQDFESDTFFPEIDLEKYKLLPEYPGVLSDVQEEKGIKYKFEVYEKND
Description: Inhibition of human DHFR at 30 degC under pH 7.4 by spectrophotometry

The next assay addresses Thymidylate synthase (Homo sapiens, UniProt P04818).
The target in assay [12] is T6, Dihydrofolate reductase (Mycobacterium avium). Description: Inhibition of Mycobacterium avium DHFR at 31 uM under 37 degC by spectrophotometry.
Assay [13] deals with T5, Dihydrofolate reductase (Pneumocystis carinii). Description: Inhibition of Pneumocystis carinii DHFR at 31 uM under 37 degC by spectrophotometry.

Chain of Thymidylate synthase (P04818 whole entry): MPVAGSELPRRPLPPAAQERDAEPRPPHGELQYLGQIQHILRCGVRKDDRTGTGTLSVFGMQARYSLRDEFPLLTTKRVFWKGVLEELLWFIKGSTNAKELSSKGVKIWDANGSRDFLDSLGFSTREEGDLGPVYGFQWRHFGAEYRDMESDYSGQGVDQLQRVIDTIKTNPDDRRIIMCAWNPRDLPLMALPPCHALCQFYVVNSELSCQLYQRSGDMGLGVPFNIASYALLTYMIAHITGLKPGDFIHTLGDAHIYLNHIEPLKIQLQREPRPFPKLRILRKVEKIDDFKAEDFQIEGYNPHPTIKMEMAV

Regarding `Cc1c(Sc2c(Cl)cccc2Cl)oc2nc(N)nc(N)c12`, the IC50 (as a rule, the concentration at which inhibition is half-maximal) was 14.4 µM at Dihydrofolate reductase [1] and 60 µM on Dihydrofolate reductase [2].
For the compound `COc1ccc(Sc2oc3nc(N)nc(N)c3c2C)cc1`, the IC50 was determined as 61.9 µM on Dihydrofolate reductase [1], 25.5 µM against Dihydrofolate reductase [3] and 34.7 µM on Dihydrofolate reductase [2].
For `COc1ccccc1Sc1oc2nc(N)nc(N)c2c1C`, the IC50 was 55.6 µM against Dihydrofolate reductase [1], 23.9 µM against Dihydrofolate reductase [3] and 20.3 µM against Dihydrofolate reductase [2].
On the same counts, the results for `COc1cccc(Sc2oc3nc(N)nc(N)c3c2C)c1` are 51.3 µM, 28.4 µM and 25.2 µM.
On Dihydrofolate reductase [2], `Cc1cccc(C(C)C)c1Sc1oc2nc(N)nc(N)c2c1C` registered an IC50 of 36.5 µM.
In the case of `COc1ccc(Sc2oc3nc(N)nc(N)c3c2C)cc1OC`, the results for the IC50 against Dihydrofolate reductase [1], against Dihydrofolate reductase [3] and on Dihydrofolate reductase [2] were 66.6 µM, 16.3 µM and 36.4 µM, respectively.
On the same counts, the results for `COc1ccc(OC)c(Sc2oc3nc(N)nc(N)c3c2C)c1` are 42.2 µM, 61.9 µM and 24 µM.
Turning to `Cc1cccc(C)c1Sc1oc2nc(N)nc(N)c2c1C`, the IC50 in assay [4] was 19.7 µM; against Dihydrofolate reductase [1], over 196 µM; against Dihydrofolate reductase [2], over 20 µM. The figures for the inhibition in assay [5], in assay [6] and in assay [7] were 27%, 20% and 41%, respectively.
For `Cc1c(Sc2ccc3ccccc3c2)oc2nc(N)nc(N)c12`, the IC50 (in [4]; on Dihydrofolate reductase [1]; on Dihydrofolate reductase [2]) was over 12 µM each time.
In the case of `Cc1c(Sc2ccc(C(=O)N[C@@H](CCC(=O)O)C(=O)O)cc2)oc2nc(N)nc(N)c12`, the IC50 was 12 µM in assay [4]; 0.02 µM against Dihydrofolate reductase [8]; 20.5 µM at Dihydrofolate reductase [1]; 0.00973 µM against Dihydrofolate reductase [3]; 27 µM in assay [9]; 2.2 µM in assay [10]. Further, the results for the IC50 at Dihydrofolate reductase [2] and against Dihydrofolate reductase [11] were 0.078 µM and 4 µM, respectively.
The compound `CN(Cc1coc2nc(N)nc(N)c12)c1ccc(C(=O)N[C@@H](CCC(=O)O)C(=O)O)cc1` [FURO[2,3D]PYRIMIDINE ANTIFOLATE] had an IC50 against Thymidylate synthase of over 200 µM.
The same measure, in the same setting: under `Nc1nc(N)c2c(CCc3ccc(C(=O)N[C@@H](CCC(=O)O)C(=O)O)cc3)coc2n1` stands over 200 µM.
For `Cc1c(Sc2cccc3ccccc23)oc2nc(N)nc(N)c12`, the IC50 in assay [4] is over 83 µM; on Dihydrofolate reductase [1], over 83 µM; on Dihydrofolate reductase [2] it was 8.6 µM.
`Cc1c(Sc2c(F)c(F)c(C(F)(F)F)c(F)c2F)oc2nc(N)nc(N)c12`: the IC50 on Dihydrofolate reductase [1] was 39.1 µM; against Dihydrofolate reductase [2] it was over 31 µM. The inhibition – broadly, how much of the control response was suppressed – was determined as 8% in assay [12] and 39% in assay [13].
As for `Nc1nc(N)c2c(CNc3ccc(C(=O)N[C@@H](CCC(=O)O)C(=O)O)cc3)coc2n1`, the IC50 against Thymidylate synthase was over 200 µM.

The values above are taken from ChEMBL document CHEMBL1159120, “2,4-Diamino-5-methyl-6-substituted arylthio-furo[2,3-d]pyrimidines as novel classical and nonclassical antifolates as potential dual thymidylate synthase and dihydrofolate reductase inhibitors” (Bioorg Med Chem, 2010).
